Tests used:
H2 receptors = conditions: in words; cited from earlier work
histamine H2-receptors = target: T1, histamine H2-receptors (Cavia porcellus, UniProt P47747); test: Histamine H2-receptor antagonism, isolated guinea pig right atria assay; type: cell-based
T1 construct: The spontaneously beating right atrium was dissected free from other tissues; from tissue; host or cells: isolated spontaneously beating right atrium of male Hartley guinea pigs
Experimental: Subsequent investigations by Hughes and Coret, Proc. Soc. […] Black et al., Agents and Actions, 3, 133 (1973) and Brimblecombe et al., Fed. […] The present comparative studies were carried out using a modification of the procedure reported by Reinhardt et al., Agents and Actions, 4, 217 (1974).
Male Hartley strain guinea pigs (350-450 gm.) were sacrificed by a blow on the head. The heart was excised and placed in a Petri dish of oxygenated (95% O2, 5% CO2) modified Krebs solution (g./liter: NaCl 6.6, KCl 0.35, MgSO4.7 H2 O 0.295, KH2 PO4 0.162, CaCl2 0.238, NaHCO3 2.1 and dextrose 2.09). The spontaneously beating right atrium was dissected free from other tissues and a silk thread (4-0) attached to each end. The atrium was suspended in a 20 ml. muscle chamber containing oxygenated modified Krebs solution maintained at 32° C. Atrial contractions were recorded isometrically by means of a Grass FT 0.03 force displacement transducer and recordings of contractile force and rate were made with a Beckman RP Dynograph.
A resting tension of 1 g. was applied to the atrium and it was allowed to equilibrate for 1 hour.
Concentration-response curve displacement factors were calculated as follows: [formula] The factor obtained for BL-5641 was then expressed as a ratio of the factor obtained for cimetidine. [formula]

gastric acid output = test: Gastric antisecretory activity in the two hour pylorus ligated (Shay) rat; type: in vivo, rat (male Long Evans)
Excerpt: Determination of Gastric Antisecretory Activity in the Two Hour Pylorus Ligated (Shay) Rat
The pyloric ligation procedure in the rat was designed by Shay et al., Gastroenterology, 5,53 (1945) for the study of perforating gastric ulcers; however, as the method became known, it was also employed as a means of studying rat gastric secretion, Shay et al., Gastroenterology, 26, 906 (1954), Brodie, D. A., Am. J. Dig. Dis., 11, 231 (1966). A modification of this procedure is presently used to evaluate compounds for gastric antisecretory activity.
Male Long Evans rats, 280-300 gm., are used. The animals are placed in individual cages and fasted for 24 hours with free access to water. Under ether anesthesia, the stomach is reached through a midline incision, and a cotton-thread ligature is placed around the pylorus. After wound closure, ether administration is stopped and either BL-5641, cimetidine or vehicle are administered intraperitoneally in a volume of […]. BL-5641 and cimetidine are solubilized with one equivalent of HCl and brought to the proper volume with water. The animals are returned to their cages from which the water bottles have been removed and two hours later are sacrificed with ether. The stomach is removed and the two hour gastric collection is drained into a graduated test tube for volume determination. Titratable acidity is measured by titrating a one ml. sample to pH 7.0 with 0.02 N NaOH, using an Autoburet and an electrometric pH meter (Radiometer). Titratable acid output is calculated in microequivalents by multiplying the volume in milliliters by the acid concentration in milliequivalents per liter. The percent inhibition of acid output is calculated as follows [formula]

[1] = in words; cited from earlier work
peptic ulcer disease = conditions: clinical evaluation, in words; cited from earlier work
[2] = clinical, in words; cited from earlier work
[3] = tested on: histamine-induced gastric acid output; test: Gastric antisecretory activity in the gastric fistula dog (histamine-induced gastric acid output); type: in vivo, dog (beagle)
Experimental: Determination of Gastric Antisecretory Activity in the Gastric Fistula Dog
Thomas type [Thomas, J. E., Proc. Soc. exp. Biol. Med., 46, 260 (1941)] stainless steel cannulae are inserted into the stomachs of beagle dogs (10-12 kg.) just orad to the pyloric gland area near the greater curvature to provide a chronic gastric fistula. Animals are allowed to recover for at least two months before any testing is done. Dogs are fasted overnight (~18 hours) with water ad lib prior to each experiment. The dogs are placed in a sling and an eight inch inside needle catheter (C. R. Baird, Inc.) with a two inch 17 gauge needle is inserted into a leg vein for purposes of drug administration. Gastric secretions are collected every 15 minutes by gravity drainage from the opened cannula. […] A modification of the procedure described by Grossman and Konturek, Gastroenterology, 66, 517 (1974) was followed. […] Each 15 minute sample of gastric juice is measured to the nearest 0.5 ml. and titratable acidity against 0.02 N NaOH (endpoint pH 7.0) is measured with an Autoburet and pH meter (radiometer). The percent inhibition of acid output is calculated as described in the pylorus ligated rat procedure.

T1 sequence (P47747 whole entry): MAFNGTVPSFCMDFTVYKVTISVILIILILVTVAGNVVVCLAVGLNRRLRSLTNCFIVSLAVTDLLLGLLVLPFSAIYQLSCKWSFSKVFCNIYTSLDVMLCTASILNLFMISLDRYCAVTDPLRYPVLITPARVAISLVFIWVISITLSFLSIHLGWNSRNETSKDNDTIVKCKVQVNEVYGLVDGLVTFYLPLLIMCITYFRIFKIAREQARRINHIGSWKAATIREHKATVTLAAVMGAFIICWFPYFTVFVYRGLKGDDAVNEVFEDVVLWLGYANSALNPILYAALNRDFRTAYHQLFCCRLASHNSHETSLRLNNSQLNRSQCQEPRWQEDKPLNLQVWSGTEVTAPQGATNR

## CNC(=NC#N)NCCSCc1[nH]cnc1C [Cimetidine]
H2 receptors
  H2 antagonist potency/effectiveness: as effective an H2 antagonist as metiamide
Histamine H2-receptors
  Activity Ratio: 1.0
Histamine H2-receptors; histamine ED50 in presence of test compound 1 × 10^-5 M, 30 min incubation
  Histamine ED50 With 95% Confidence Limits: 1.39 µg/mL
Histamine H2-receptors; test compound 1 × 10^-5 M
  Concentration-Response Curve Displacement Factor: 6.6
Gastric acid output; 5 μMole/kg. ip, 2 h (cimetidine 1.25 mg/kg)
  % Inhibition of Acid Output: 34%
Gastric acid output; 10 μMole/kg. ip, 2 h (BL-5641 2.76 mg/kg; cimetidine 2.5 mg/kg)
  % Inhibition of Acid Output: 40%
Gastric acid output; 20 μMole/kg. ip, 2 h (BL-5641 5.53 mg/kg; cimetidine 5 mg/kg)
  % Inhibition of Acid Output: 60%
Gastric acid output; 40 μMole/kg. ip, 2 h (BL-5641 11.1 mg/kg; cimetidine 10 mg/kg)
  % Inhibition of Acid Output: 66%
Gastric acid output; Rattus norvegicus, ip, 2 h, read-out: ED50 (inhibition of acid output)
  ED50: ~14 µmol/kg
[1]
  half-life: relatively short
Peptic ulcer disease
  therapeutic effect in peptic ulcer disease: effective therapeutic agent in the treatment of peptic ulcer disease
[2]
  toxicity (agranulocytosis): without producing agranulocytosis
[3]; 0.75 μM/kg. iv, 15 min, dog 23553, N=1
  % Inhibition Acid Output: 50%
[3]; 0.75 μM/kg. iv, 30 min, dog 23553, N=1
  % Inhibition Acid Output: 10%
[3]; 0.75 μM/kg. iv, 45 min, dog 23553, N=1
  % Inhibition Acid Output: 24%
[3]; 0.75 μM/kg. iv, 60 min, dog 23553, N=1
  % Inhibition Acid Output: 17%
[3]; 0.75 μM/kg. iv, 75 min, dog 23553, N=1
  % Inhibition Acid Output: 35%
[3]; 0.75 μM/kg. iv, 90 min, dog 23553, N=1
  % Inhibition Acid Output: 27%
[3]; 0.75 μM/kg. iv, 105 min, dog 23553, N=1
  % Inhibition Acid Output: 25%
[3]; 0.75 μM/kg. iv, 120 min, dog 23553, N=1
  % Inhibition Acid Output: 19%
[3]; 1.5 μM/kg. iv, 15 min, dog 24895, N=1
  % Inhibition Acid Output: 73%
[3]; 1.5 μM/kg. iv, 30 min, dog 24895, N=1
  % Inhibition Acid Output: 57%
[3]; 1.5 μM/kg. iv, 45 min, dog 24895, N=1
  % Inhibition Acid Output: 60%
[3]; 1.5 μM/kg. iv, 60 min, dog 24895, N=1
  % Inhibition Acid Output: 29%
[3]; 1.5 μM/kg. iv, 75 min, dog 24895, N=1
  % Inhibition Acid Output: 0%
[3]; 1.5 μM/kg. iv, 90 min, dog 24895, N=1
  % Inhibition Acid Output: 18%
[3]; 1.5 μM/kg. iv, 105 min, dog 24895, N=1
  % Inhibition Acid Output: 0%
[3]; 1.5 μM/kg. iv, 120 min, dog 24895, N=1
  % Inhibition Acid Output: 0%
[3]; 3 μM/kg. iv, 15 min, dog 23606, N=1
  % Inhibition Acid Output: 43%
[3]; 3 μM/kg. iv, 30 min, dog 23606, N=1
  % Inhibition Acid Output: 27%
[3]; 3 μM/kg. iv, 45 min, dog 23606, N=1
  % Inhibition Acid Output: 15%
[3]; 3 μM/kg. iv, 60 min, dog 23606, N=1
  % Inhibition Acid Output: 0%
[3]; 3 μM/kg. iv, 75 min, dog 23606, N=1
  % Inhibition Acid Output: 17%
[3]; 3 μM/kg. iv, 90 min, dog 23606, N=1
  % Inhibition Acid Output: 38%
[3]; 3 μM/kg. iv, 105 min, dog 23606, N=1
  % Inhibition Acid Output: 8%
[3]; 3 μM/kg. iv, 120 min, dog 23606, N=1
  % Inhibition Acid Output: 0%
[3]; 6 μM/kg. iv, 15 min, dog 22619, N=1
  % Inhibition Acid Output: 84%
[3]; 6 μM/kg. iv, 30 min, dog 22619, N=1
  % Inhibition Acid Output: 96%
[3]; 6 μM/kg. iv, 45 min, dog 22619, N=1
  % Inhibition Acid Output: 73%
[3]; 6 μM/kg. iv, 60 min, dog 22619, N=1
  % Inhibition Acid Output: 67%
[3]; 6 μM/kg. iv, 75 min, dog 22619, N=1
  % Inhibition Acid Output: 65%
[3]; 6 μM/kg. iv, 90 min, dog 22619, N=1
  % Inhibition Acid Output: 54%
[3]; 6 μM/kg. iv, 105 min, dog 22619, N=1
  % Inhibition Acid Output: 40%
[3]; 6 μM/kg. iv, 120 min, dog 22619, N=1
  % Inhibition Acid Output: 32%
[3]; 12 μM/kg. iv, 15 min, dog 24136, N=1
  % Inhibition Acid Output: 63%
[3]; 12 μM/kg. iv, 30 min, dog 24136, N=1
  % Inhibition Acid Output: 99%
[3]; 12 μM/kg. iv, 45 min, dog 24136, N=1
  % Inhibition Acid Output: 89%
[3]; 12 μM/kg. iv, 60 min, dog 24136, N=1
  % Inhibition Acid Output: 76%
[3]; 12 μM/kg. iv, 75 min, dog 24136, N=1
  % Inhibition Acid Output: 54%
[3]; 12 μM/kg. iv, 90 min, dog 24136, N=1
  % Inhibition Acid Output: 48%
[3]; 12 μM/kg. iv, 105 min, dog 24136, N=1
  % Inhibition Acid Output: 41%
[3]; 12 μM/kg. iv, 120 min, dog 24136, N=1
  % Inhibition Acid Output: 14%
[3]; iv, in words
  onset of effect on gastric acid output: immediate inhibitory effect on gastric acid output
